This note sets out measurements from patent publication US10143705B2, “Method of treating a patient with a disease caused by a pathogenic mechanism associated with accumlation of methylglyoxal” (priority 2015, dated 2018).

The assay in a line: Inhibitory effect of monosaccharides against methylglyoxal in vitro. The settings on record: concentration 0.05 M. An excerpt:
The percentage inhibitory ratio of monosaccharide against methylglyoxal is 50% when the concentration of the monosaccharide is 0.05 M.
Foregoing exemplary embodiments of the present invention manifest that the low-molecular-weight chitosan has considerable effect to the carbonyl stress induced by the methylglyoxal both in vivo and in vitro. For an exemplary embodiment in vitro, the present invention employs buffer to simulate the same environmental status as human body by means of putting glucosamine and low-molecular-weight chitosan into buffer containing methylglyoxal to measure the bonding ratio thereof after 16 hours so that the half Inhibitory concentration associated with the affecting of low-molecular-weight chitosan to methylglyoxal can be obtained for further study on the examination of the binding conjugation of low-molecular-weight chitosan with methylglyoxal in vitro.

With `NC1C(O)[C@H](O)C(CO)O[C@@H]1O` (stereo partly shown) [monosaccharide, glucosamine], the “percentage inhibitory ratio against methylglyoxal” value is listed as 50%.
